The test system of one data set is aconitase. Kind of data set: Aconitase assay in FRDA lymphoblasts. In kind it is cell-based, human. Conditions: FRDA lymphoblasts GM16798; 50 μM; 6 days. On the procedure:
(§1) FRDA lymphoblasts and fibroblasts were washed twice with ice-cold Dulbecco's Phosphate Buffered Saline (DPBS) and lysed in CelLytic M buffer (Sigma-Aldrich) supplemented with Complete protease inhibitor cocktail, EDTA-free (Roche). Aconitase activity was measured spectrophotometrically at 340 nm by a coupled reaction of aconitase and isocitrate dehydrogenase. The assay reactions contained […] of cell extract in 50 mM Hepes pH 7.4, 1 mM sodium citrate, 0.6 mM MnCl2, 0.2 mM NADP^+ and 2 U/ml isocitrate dehydrogenase (Sigma-Aldrich). Citrate synthase activity was assessed using […] of cell extract with the Citrate Synthase Assay Kit (Sigma-Aldrich CS0720). The aconitase activities were normalized with respect to citrate synthase ratios; one milliunit of enzyme was defined as the amount of protein that converted 1 nmol of NADP^+ in 1 min at 25° C. The intracellular ATP content was measured in black microtiter plates using […] of cell extract with the ATP Bioluminescence Assay Kit CLS II (Roche) according to the manufacturer's protocol.
(§2) FRDA lymphoblasts GM16798 were left untreated or treated for 6 days with 50 μM Formula IV. Their genetically-related healthy control GM16241 lymphoblasts were left untreated. […] Aconitase activity and ATP levels were measured as described previously.

For data set [1], the target named is T1, frataxin (Homo sapiens, UniProt Q16595).
T1 sequence (Q16595 42-210): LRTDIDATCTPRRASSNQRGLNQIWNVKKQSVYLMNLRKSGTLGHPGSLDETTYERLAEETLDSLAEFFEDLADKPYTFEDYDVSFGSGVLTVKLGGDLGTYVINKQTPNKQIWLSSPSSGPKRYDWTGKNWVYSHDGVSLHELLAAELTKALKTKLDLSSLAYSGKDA
The data set is described as follows: Frataxin accumulation in FRDA fibroblasts (FACS, SDS-PAGE/western blot). Type of data set: cell-based. Details: HEK-293 Flp-In cells stably transfected with frataxin^1-210; expressed in transfected cells. Conditions: FRDA fibroblasts GM03816; 100 μM; 3 days. As for the experimental part:
(§3) Human embryonic kidney HEK-293 cells and Hela cells were maintained in DMEM supplemented with 10% FBS. HEK-293 were transfected with the calcium/phosphate precipitation method, using 20 μg total DNA (10 μg pIRES-frataxin and 10 μg HA-Ub, or corresponding empty vectors) on 10 cm dishes. Hela cells were transfected using Lipofectamine 2000 reagents (Invitrogen), according to manufacturer's instructions. Where indicated, the day after transfection, cells were treated for 16 h with 10 μM proteasome inhibitors, MG132 or Lactacystin, or 50 ng/ml DUB inhibitor Ubiquitin-Aldehyde. […]
(§4) Cell extracts were prepared in modified RIPA buffer (10 mM sodium phosphate pH7.2, 150 mM NaCl, 1% Na deoxycholate, 0.1% SDS, 1% Np40, 2 mM EDTA) or IP buffer (50 mM Tris-HCl, pH 7.5, 150 mM NaCl, 1% Nonidet P-40, 5 mM EDTA, 5 mM EGTA) supplemented with Complete protease inhibitor cocktail and 2 mM N-Ethylmaleimide (NEM). For immunoblotting, 100 μg of protein extract were separated on 12% SDS-PAGE, blotted onto nitrocellulose membrane and detected with specific antibodies. […] Immunocomplexes were then resolved and analysed by SDS-PAGE. […]
Cells were collected after the indicated treatments and fixed for 20 minutes in 4% paraformaldehyde at room temperature. […] After washing 3 times with PBS cells were analyzed by flow cytometry (Becton Dickinson). […]

The target in data set [2] is T1, frataxin. The data set is described as follows: Frataxin accumulation in FRDA lymphoblasts (FACS, SDS-PAGE/western blot). In kind it is cell-based. Conditions: 50 μM, 6 days. As for the experimental part: as §3, with “Ubiquitin-Aldehyde. Flp-In-HEK-293 cells (Invitrogen) are HEK-293 variants allowing the stable and isogenic integration and expression of a transfected gene. Flp-In-HEK-293 cells were maintained in DMEM supplemented with 10% FBS and transfected with the calcium/phosphate precipitation method. Briefly, cells were plated on 10 cm dishes and transfected with 10 μg total DNA. The HEK-293 clone stably expressing frataxin^1-210 was previously described (4).” for “Ubiquitin-Aldehyde.”
as §4
Cells were collected after the indicated treatments and fixed for 20 minutes in 4% paraformaldehyde at room temperature. […] After washing 3 times with PBS cells were analyzed by flow cytometry (Becton Dickinson).
FRDA lymphoblasts GM15850 were cultured for 6 days in the presence of 50 μM Formula IV or Formula VI. Cells were then fixed, stained with anti-frataxin antibody or anti-Bcl2, as a control, and analyzed by flow cytometry. […]

Data set [3] has as its system FRDA lymphoblasts GM16798. Kind of data set: Intracellular ATP content in FRDA lymphoblasts. Type of data set: cell-based, human. To be noted: 50 μM, 6 days. On the procedure: as §1, §2
Data set [4] deals with T1, frataxin. The data set is described as follows: Frataxin accumulation in HEK-293 Flp-In cells stably expressing frataxin 1-210 (WB, FACS). In kind it is cell-based. The arrangement: HEK-293 Flp-In cells stably transfected with frataxin^1-210; expressed in transfected cells. Conditions: HEK-293 Flp-In frataxin 1-210; 100 μM; 18 hours. As for the experimental part: Human embryonic kidney HEK-293 cells and Hela cells were maintained in DMEM supplemented with 10% FBS. HEK-293 were transfected with the calcium/phosphate precipitation method, using 20 μg total DNA (10 μg pIRES-frataxin and 10 μg HA-Ub, or corresponding empty vectors) on 10 cm dishes. Hela cells were transfected using Lipofectamine 2000 reagents (Invitrogen), according to manufacturer's instructions. Where indicated, the day after transfection, cells were treated for 16 h with 10 μM proteasome inhibitors, MG132 or Lactacystin, or 50 ng/ml DUB inhibitor Ubiquitin-Aldehyde. Flp-In-HEK-293 cells (Invitrogen) are HEK-293 variants allowing the stable and isogenic integration and expression of a transfected gene. Flp-In-HEK-293 cells were maintained in DMEM supplemented with 10% FBS and transfected with the calcium/phosphate precipitation method. Briefly, cells were plated on 10 cm dishes and transfected with 10 μg total DNA. The HEK-293 clone stably expressing frataxin^1-210 was previously described (4). The HEK-293 clone stably expressing frataxin^K147R was obtained from cultures in selection medium containing 100 μg/ml hygromycin B (Invitrogen). FRDA lymphoblasts GM15850, GM16798 and […], as well control lymphoblasts GM15851, GM16241 and GM16215, were maintained in RPMI supplemented with 15% FBS. Treatments with specific ubiquitin-competing molecules were performed in 20% FBS containing medium. FRDA fibroblasts GM03816 were maintained in DMEM supplemented with 15% FBS.
Cell extracts were prepared in modified RIPA buffer (10 mM sodium phosphate pH7.2, 150 mM NaCl, 1% Na deoxycholate, 0.1% SDS, 1% Np40, 2 mM EDTA) or IP buffer (50 mM Tris-HCl, pH 7.5, 150 mM NaCl, 1% Nonidet P-40, 5 mM EDTA, 5 mM EGTA) supplemented with Complete protease inhibitor cocktail and 2 mM N-Ethylmaleimide (NEM). For immunoblotting, 100 μg of protein extract were separated on 12% SDS-PAGE, blotted onto nitrocellulose membrane and detected with specific antibodies. For in vivo detection of ubiquitin-conjugates […] and 50 ng/ml Ubiquitin-Aldehyde were added to the lysis buffer. For immunoprecipitation, 5 mg of total protein extract prepared as above were incubated for 1-2 h at 4° C. with specific antibodies, previously conjugated to Protein G-sepharose (GE Healthcare). Immunocomplexes were then resolved and analysed by SDS-PAGE. […] Densitometric analysis was performed using ImageJ software.
Cells were collected after the indicated treatments and fixed for 20 minutes in 4% paraformaldehyde at room temperature. Cells were then permeabilized and blocked in a blocking solution (3% FBS in PBS) containing 0.2% Triton, for 1 hour at room temperature. Cells were then incubated overnight at 4° C. with anti-frataxin monoclonal antibody (MAB-10485, Immunological Science) or anti-Bcl2 monoclonal antibody (sc-509, Santa Cruz) diluted 1:200 in blocking solution. Cells were then washed 3 times in PBS and incubated for 1 hour at room temperature with FITC-conjugated goat anti-mouse IgG/IgM (BD Bioscience Pharmingen) diluted 1:200 in blocking solution. After washing 3 times with PBS cells were analyzed by flow cytometry (Becton Dickinson).
HEK-293 Flp-In cells stably transfected with frataxin^1-210 were treated for the indicated times with 10 μM MG132. Total cell extracts were blotted as in A. One representative experiment out of four performed with similar results is shown in FIG. 18.
Formula III induces frataxin precursor accumulation. HEK-293 Flp-In cells stably expressing frataxin^1-210 were treated for the indicated days with 20 μM of Formula III or 10 μM MG132. Total cell extracts were resolved on SDS-PAGE and analyzed with anti-frataxin antibody, or anti-tubulin, as a loading control.
Formula III induces mature frataxin accumulation. HEK-293 Flp-In cells stably expressing frataxin^1-210 were treated and analyzed as in B. One representative experiment out of three performed with similar results is shown FIG. 5C. […]

A further data set has as its system FRDA fibroblasts GM03816. The data set is described as follows: Intracellular ATP content in FRDA fibroblasts. To be noted: 100 μM, 3 days. Type of data set: cell-based, human. As for the experimental part: as §1, with “The aconitase activities were normalized with respect to citrate synthase ratios; one milliunit of enzyme was defined as the amount of protein that converted 1 nmol of NADP^+ in 1 min at 25° C.” left out
FRDA fibroblasts GM03816 were treated for 3 days with 100 μM Formula IV. Cells were then fixed, stained with anti-frataxin antibody or anti-Bcl2, as a control, and analyzed by flow cytometry. […] Total cell extracts were resolved on SDS-PAGE and analyzed with anti-frataxin antibody, or anti-tubulin, as a loading control. […] ATP levels were quantitated as described previously.

The next data set deals with FRDA cells. The data set is described as follows: Tolerability by FRDA cells. In kind it is cell-based, human. Conditions: among the different ubiquitin-competing molecules.

This note sets out measurements from patent publication US8703749B2, “Compositions and methods for treating Friedreich's Ataxia” (priority 2009, dated 2014).

As to `O=[N+]([O-])c1cccc(/C=N/NS(=O)(=O)c2ccc(Cl)cc2)c1O` [Formula IV], the aconitase activity entry with aconitase is reported as “significantly boost”. For the same molecule, the “frataxin accumulation by FACS and SDS-PAGE/western blot” value at frataxin [1] is reported as “frataxin accumulation can be detected as early as 3 days of treatment”. The “accumulation of mature frataxin by SDS-PAGE and western blot” value at frataxin [2] (FRDA lymphoblasts GM15850, GM16798 and GM16214) was “accumulation of mature frataxin can be detected”. The “frataxin accumulation by FACS analysis” value at frataxin [2] (FRDA lymphoblasts GM15850) is “discrete frataxin accumulation detectable in all cells”. Besides, the ATP levels result in data set [3] was “significantly boost”; with FRDA fibroblasts GM03816, “Rescue of ATP levels can also be achieved”. The “frataxin accumulation by WB and FACS analysis” value on frataxin [4] was “effective in inducing frataxin accumulation”. Also, the “tolerability by FRDA cells” value with FRDA cells was “best tolerated”.
